Test [1] has as its system human corpus cavernosum tissue. The test is described as follows: Concentration response relaxation studies of human corpus cavernosum tissue strips contracted with phenylephrine. In kind it is cell-based. The settings on record: compound alone, strips contracted with 0.5 μM phenylephrine, relaxation as % of 0.1 mM papaverine, n=5, read-out: EC50 (concentration required to obtain the half-maximum response) for relaxation. The procedure: Human corpus cavernosum specimens were obtained from impotent men at the time of penile prosthesis insertion. Tissues were maintained at 4-6° C. in M-400 solution (composition per 100 ml: mannitol, 4.19 g; KH2PO4, 0.205 g; K2HPO4.3H2O, 0.97 g; KCl, 0.112 g; NaHCO3, 0.084 g) until used. Corpus cavernosum tissues were typically used between 2 and 16 hours from extraction.
Concentration response relaxation studies of human corpus cavernosum tissues were conducted as follows. Corpus cavernosal tissue strips (3×3×7 mm), obtained as described in Example 2, were immersed in a 8 ml organ chamber containing physiological salt solution, maintained at 37° C. and aerated with 5% CO2/95% air, pH 7.4. Each strip was incrementally stretched to optimal isometric tension, as determined by maximal contractile responses to 1 μM phenylephrine. Relaxant responses were evaluated by adding increasing cumulative concentrations of compounds to the strips contracted with 0.5 μM phenylephrine. Relaxation responses were expressed as a percentage of total relaxation induced by the addition of 0.1 mM papaverine hydrochloride (total loss of tone) at the end of the experiment. In FIGS. 2 and 3, the data are expressed as mean±standard error. Statistical analysis were conducted using a two-factor ANOVA statistical analysis using StatView software for Apple computers.
The tissues were prepared according to Example 4. […]

Test [2] deals with human corpus cavernosum tissue. Put plainly: Measurement of cGMP in human corpus cavernosum tissues (ELISA). The test is classed as cell-based. The conditions noted are these: 5 min incubation after 30 μM Zaprinast and 100 μM IBMX, n=5. The procedure: Human corpus cavernosum specimens were obtained from impotent men at the time of penile prosthesis insertion. Tissues were maintained at 4-6° C. in M-400 solution (composition per 100 ml: mannitol, 4.19 g; KH2PO4, 0.205 g; K2HPO4.3H2O, 0.97 g; KCl, 0.112 g; NaHCO3, 0.084 g) until used. Corpus cavernosum tissues were typically used between 2 and 16 hours from extraction. Measurement of cyclic GMP in corpus cavernosal tissues was carried out as follows. Corpus cavernosal tissue strips (3×3×7 mm) were immersed in a 8 ml organ chamber containing physiological salt solution, maintained at 37° C. and aerated with 5% CO2/95% air, pH 7.4. […] Tissues were incubated for another 5 minutes then immediately frozen in liquid nitrogen and stored at -80° C. until extraction for cyclic nucleotide assay. Tissues were extracted by homogenization in 6% trichloroacetic acid followed by ether (H2O-saturated) extraction and lyophilization. cGMP levels were determined by ELISA using a kit from Cayman Chemical (Ann Arbor, Mich.). Protein concentration in the corpus cavernosum tissue was determined using the Bio-Rad Protein Assay Kit microtiter plate assay procedure (Bio-Rad, Hercules, Calif.) with bovine serum albumin as the standard. The measured concentrations of cGMP in picomoles were normalized based on milligrams of protein to provide a valid comparison between each tissue sample. […]
For orientation: In an ELISA, binding on a coated surface is turned into a signal by an enzyme label.

In the case of `N[C@@H](CCC(=O)N[C@@H](CSN=O)C(=O)NCC(=O)O)C(=O)O` [GS-NO, N-(N-L-γ-glutamyl-S-Nitroso-L-cysteinyl)glycine], the EC50 in test [1] was 2.56 ± 1.3 µM. Moreover, in test [2] (100 μM GS-NO alone), the “cGMP production compared to control” value was “increased amounts of cGMP”.

As to `CCCCC[C@H](O)/C=C/[C@H]1[C@H](O)CC(=O)[C@@H]1CCCCCCC(=O)O` [PGE1, 7-(5-((1E)(3S)-3-hydroxyoct-1-enyl)(1R,4R,5R)-4-(hydroxy-2-oxocyclopentyl)heptanoic acid)], the EC50 in test [1] was determined as 0.083 ± 0.05 µM. Moreover, the “cGMP production compared to control” value in test [2] (1 μM PGE1 alone) is “did not produce a significant amount of cGMP”.
